Source: US6720346B2, “Thiazole benzamide derivatives and pharmaceutical compositions for inhibiting cell proliferation” (Agouron Pharmaceuticals, Inc., priority 2001, dated 2004)
Where a name gives a salt, the structure may show the parent alone.

Key:
HCT-116 cell line = experiment: Inhibition of cell growth, MTT tetrazolium salt assay; format: cell-based; settings: Homo sapiens, HCT-116, 120 h, MTT, three to five days; for IC90: 90% inhibition of growth
Method in brief: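 HCT-116 cells in McCoy's 5A were dosed 4 h after plating with compounds in 0.5% DMSO and grown 3–5 days at 37 °C. Then 0.2 mg/mL MTT was added for 4 h and formazan absorbance read at 540 nm. IC50/IC90 came from semi-log plots against DMSO-only controls.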

[1] = target: T1, phosphorylated LCK kinase (Homo sapiens, UniProt P06239, C224D/P223M); experiment: Inhibition of phosphorylated LCK tyrosine kinase activity (coupled spectrophotometric assay); format: biochemical; settings: read-out: P-LCK % Inhibition at 1 μM
T1 construct: starting from amino acid 223 to the end of the protein at amino acid 509; made in house; host or cells: insect cells
T1 sequence (P06239 223-509 P223M/C224D): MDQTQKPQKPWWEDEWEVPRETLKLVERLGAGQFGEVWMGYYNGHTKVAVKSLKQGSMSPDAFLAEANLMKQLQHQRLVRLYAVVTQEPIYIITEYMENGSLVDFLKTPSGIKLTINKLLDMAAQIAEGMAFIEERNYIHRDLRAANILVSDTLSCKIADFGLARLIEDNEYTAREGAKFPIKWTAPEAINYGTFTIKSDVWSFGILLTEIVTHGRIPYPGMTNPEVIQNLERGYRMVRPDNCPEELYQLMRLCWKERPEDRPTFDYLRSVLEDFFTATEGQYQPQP
Procedure: (§1) Cloning, expression and purification of the cytosolic domain of FGFR1 tyrosine kinase (amino acids 456-766) containing three amino acid substitutions (L457V, C488A, and C584S) were conducted as previously described (Mohammadi, M., Schiessinger, J., & Hubbard, S. R. Cell, 86, (1996) 577-587). This domain was expressed in Sf9 insect cells using a baculovirus expression vector, and protein was purified using conventional techniques. The LCK tyrosine kinase was expressed in insect cells as an N-terminal deletion starting from amino acid 223 to the end of the protein at amino acid 509. The N-terminus of the protein also had two amino acid substitutions, P223M and C224D. Kinases were purified using conventional chromatographic methods.
(§2) Tyrosine kinase activity was measured using a coupled, continuous spectrophotometric assay, in which production of phosphorylated poly(Glu,Tyr; 4:1) substrate and ADP is coupled to the pyruvate kinase-catalyzed transfer of a phosphate from phosphoenolpyruvate to ADP, with generation of pyruvate and regeneration of ATP. Pyruvate production is in turn coupled to the lactate dehydrogenase-catalyzed reduction of pyruvate to form lactate, with concomitant conversion of NADH to NAD^+. Loss of NADH is monitored by measuring absorbance at 340 nm (see e.g., Technikova-Dobrova et al., “Spectrophotometric Determination of Functional Characteristics of Protein Kinases with Coupled Enzymatic Assay,” FEBS Letters, 292 (1991), pp. 69-72). Enzyme activity was measured in the presence of 200 mM HEPES (pH 7.5), 2 mM phosphoenolpyruvate, 0.3 mM NADH, 20 mM MgCl2, 100 μM ATP, 5 mM DTT, 5.1 or 25 mM poly (Glu,Tyr) 4:1 for P-FGF or P-LCK assays, respectively, and 15 units/mL each of pyruvate kinase and lactate dehydrogenase. Phosphorylated FGF receptor kinase was present at 100 nM and phosphorylated LCK kinase was present at 50 nM. Assays were performed under initial rate conditions at 37° C., and rates were corrected for any background rate measured in the absence of enzyme. Percent inhibition was calculated relative to control enzyme assayed in the presence of 2% (v/v) DMSO.

CDK2/cyclin A = target: T2, CDK2/cyclin A (Homo sapiens, UniProt P24941); experiment: Inhibition of CDK2/cyclin A retinoblastoma kinase activity (Ki; % inhibition); format: biochemical; settings: apparent Ki, CDK2/cyclin A, Rb substrate
T2 construct: made in house; host or cells: CDK2: insect cells (baculovirus); cyclin A: E. coli
Method in brief: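 Radiometric filter assay of CDK2/proteolyzed cyclin A (baculovirus-expressed human CDK2, 10 or 19 nM) phosphorylating an Rb fragment with 25 μM [³²P/³³P]ATP in pH 7.4 HEPES, 2% DMSO, at 30 °C for 60 or 75 min under initial-rate conditions. Library compounds screened at 30 nM for % inhibition; apparent Ki from concentration series fit to competitive or tight-binding inhibition equations.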

[2] = target: T3, Phosphorylated FGF receptor kinase (FGFR1 cytosolic domain) (Homo sapiens, UniProt P11362, C488A/C584S/L457V); experiment: Inhibition of phosphorylated FGF receptor tyrosine kinase activity (coupled spectrophotometric assay); format: biochemical; settings: read-out: P-FGF % Inhibition at 1 μM
T3 construct: FGFR1 tyrosine kinase (amino acids 456-766); made in house; host or cells: Sf9 insect cells (baculovirus)
T3 sequence (P11362 456-766 L457V/C488A/C584S): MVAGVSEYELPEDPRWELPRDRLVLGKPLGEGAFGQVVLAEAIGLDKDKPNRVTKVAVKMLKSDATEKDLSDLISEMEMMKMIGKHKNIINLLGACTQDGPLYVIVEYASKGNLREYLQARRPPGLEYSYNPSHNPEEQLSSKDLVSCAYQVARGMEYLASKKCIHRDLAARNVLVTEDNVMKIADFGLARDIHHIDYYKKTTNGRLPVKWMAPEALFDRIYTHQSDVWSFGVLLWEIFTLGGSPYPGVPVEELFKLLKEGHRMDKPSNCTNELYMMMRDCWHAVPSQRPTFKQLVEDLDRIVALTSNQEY
Procedure: as §1, §2

Compound | IC50 (HCT-116 cell line) [µM] | inhibition at 1 µM [1] [%] | Ki (CDK2/cyclin A) [µM] | inhibition at 1 µM [2] [%] | IC90 (HCT-116 cell line) [µM]
Nc1nc(Nc2ccc(C(=O)NCCc3ccc(O)cc3)cc2)sc1C(=O)c1c(F)cccc1F [Example A14, 4-[4-Amino-5-(2,6-difluoro-benzoyl)-thiazol-2-ylamino]-N-[2-(4-hydroxy-phenyl)-ethyl]-benzamide] | 0.042 | 0 | 0.06 | 0 | –
CC(CN(C)C)NC(=O)c1ccc(Nc2nc(N)c(C(=O)c3c(F)cccc3F)s2)cc1 (stereo not shown) [Example A20, 4-[4-Amino-5-(2,6-difluoro-benzoyl)-thiazol-2-ylamino]-N-(2-dimethylamino-1RS-methyl-ethyl)-benzamide Hydrochloride Salt] | 0.076 | 0 | 0.162 | 0 | 0.18
Nc1nc(Nc2ccc(C(=O)Nc3ccc(N4CCOCC4)cc3)cc2)sc1C(=O)c1c(F)cccc1F [Example A21] | 0.1 | 0 | 0.105 | 0 | –

Further compounds by falling IC50 (HCT-116 cell line), results first:

IC50 (HCT-116 cell line) [µM] | inhibition at 1 µM [1] [%] | Ki (CDK2/cyclin A) [µM] | inhibition at 1 µM [2] [%] | IC90 (HCT-116 cell line) [µM] | Compound
0.09 | 0 | 0.15 | 0 | – | Nc1nc(Nc2ccc(C(=O)NCCN3CCCCC3)cc2)sc1C(=O)c1c(F)cccc1F [Example A15, 4-[4-Amino-5-(2,6-difluoro-benzoyl)-thiazol-2-ylamino]-N-(2-piperidin-1-yl-ethyl)-benzamide]
0.03 | 0 | 0.049 | 0 | 0.07 | CN1CCC[C@H]1CNC(=O)c1ccc(Nc2nc(N)c(C(=O)c3c(F)cccc3F)s2)cc1 [Example A31, 4-[4-Amino-5-(2,6-difluoro-benzoyl)-thiazol-2-ylamino]-N-(1-methyl-pyrrolidin-2S-yl-methyl)-benzamide Dihydrochloride]
